This note sets out measurements from US11534408B2, “Microcapsules and methods of using the same” (priority 2018, dated 2022).

Each structure is given as a SMILES string.

For the series, the system named is Pseudomonas aeruginosa strain PAO1. Kind of series: Diffusion of antibiotic molecules through the membrane of PAO1 nanoculture capsules. The series is classed as cell-based. As for the experimental part:
FIGS. 9A-9C provide representative brightfield images of the presently disclosed nanoculture capsules. Pseudomonas aeruginosa PAO1 strain was used as the bacterial inoculum for the inner phase of the capsules. Antibiotics, including tobramycin and tetracycline, were introduced 24 hours after encapsulation. (9A) Untreated PAO1 nanoculture after 24 hours. (9B) PAO1 nanoculture treated with 50 ug/ml tobramycin. (9C) PAO1 nanoculture treated with 50 ug/ml tetracycline.
The presently disclosed polymer was used to investigate the diffusion of antibiotic molecules through the membrane. Pseudomonas aeruginosa strain PAO1 was used as the bacterial inoculum for the inner phase of the nanoculture capsules. Antibiotics, including tobramycin and tetracycline, to which the PAO1 were sensitive, were introduced 24 hours after encapsulation. A 24-hour incubation period allowed for the confluent growth of PAO1. […] Microcapsules used in FIGS. 9A-9C were generated by using (H:V)=(0.6:1) with 3 ppm Pt catalyst and 0% DMAA. The generated microcapsules were heat treated for 5 minutes at 70° C. immediately after encapsulation. Following heat treatment, capsules were incubated at 37° C. for 24 hours.

As for `CN(C)[C@@H]1C(O)=C(C(N)=O)C(=O)[C@@]2(O)C(O)=C3C(=O)c4c(O)cccc4[C@@](C)(O)[C@H]3C[C@@H]12` [tetracycline], the “Ability to permeate and diffuse through the membrane” value (inferred from PAO1 killing at 50 ug/ml, membrane (H:V)=(0.6:1), 3 ppm Pt, 0% DMAA) was “able to diffuse through the membrane”.
For the compound `NC[C@H]1O[C@H](O[C@H]2[C@H](O)[C@@H](O[C@H]3O[C@H](CO)[C@@H](O)[C@H](N)[C@H]3O)[C@H](N)C[C@@H]2N)[C@H](N)C[C@@H]1O` [tobramycin], the “PAO1 cells in nanoculture capsules after antibiotic treatment” value (50 ug/ml antibiotic introduced 24 hours after encapsulation, capsules (H:V)=(0.6:1), 3 ppm Pt catalyst, 0% DMAA, heat treated 5 minutes at 70° C.) was “persisted”. The “Ability to permeate and diffuse through the membrane” value (not told) was “unable to permeate and diffuse through the membrane”.
